# Data: patent publication US20160206623A9, “Composition For Prevention of Vasoactivity in the Treatment of Blood Loss and Anemia” (priority 2012, published 2016)
# Tested on: segments of the rat thoracic aorta (RTA)
# Assay: Vasoactivity (isometric tension) of rat thoracic aorta rings in tissue bath
structure (smiles),measurement,setting,value
"COc1ccc([C@@H]2Sc3ccccc3N(CCN(C)C)C(=O)[C@@H]2OC(C)=O)cc1 [DLT, Diltiazam]",vasoconstriction with HES + PHE,"HES 4.4 uM + PHE, DLT 10^-7 to 10^-5 M (FIG. 8, a2-d2)",the vasoconstriction is reduced
same,effect on PHE induced vasoconstriction,"PHE without hemoglobin, different concentrations of additive (DLT 10^-7 to 10^-5 M)",reduces the vasoconstrictive effect of PHE
"CNC[C@H](O)c1cccc(O)c1 [PHE, Phenylephrine]",tension of the RTA,"PHE added after SFH, preliminary experiments",increase the tension of the RTA significantly
"COc1cc2nc(N3CCN(C(=O)C4CCCO4)CC3)nc(N)c2cc1OC (stereo not shown) [TER, Terazosin]",vasoconstrictive effect of SFH,"terazosin suboptimal 10^-8 M, SFH+PHE (FIG. 9)",reduces the vasoconstrictive effect of SFH
